Read-outs that look alike come from different tables or passages of the source.
Columns and labels:
[1] = system: merlin negative cell lines; assay: Anchorage-independent growth-death assay, merlin negative cell line panel; assay type: cell-based; conditions: Homo sapiens, ALL5; second anchorage-independent assay; all 5 merlin negative cell lines; read-out: gIC50 values
Method: (§1) Five human mesothelioma cell lines and two additional human lung cancer cell lines available from the ATCC were used in these studies. Cells were grown in RPMI1640 media containing 10% FBS, 1% L-glutamine, 1% sodium pyruvate under standard cell culture conditions. The mesothelioma cell lines: NCI-H2052, MSTO-211H, NCI-H28, NCI-H226, NCI-H2452, and additional lung lines: A549 and SW-1573. An additional three mesothelioma cell lines, Mero-41, Mero-82, and Mero-14, were grown under identical conditions.
The cellular response to Compound A was evaluated in an anchorage-independent cell growth assay that quantified the extent of cell growth inhibition and the net change in cell population. The assay was performed in black, clear bottom, untreated 384-well plates (Greiner #781096). […]
(§2) On day 6, the assay was stopped by developing the plates, placing a black sticker on bottom of each plate to block light, adding 25 μL of CTG, and incubating the plates for 20 minutes at room temperature. The plates were scanned using a luminescence protocol on the EnVision (Perkin-Elmer).
(§3) Results were expressed as a percent of the T0 value and plotted against the compound concentration. […] The cellular response was determined by fitting the concentration response curves using a 4-parameter curve fit equation and determining the concentration that inhibited growth by 50% (gIC50). […]

MSTO-211H cells = assay: Anchorage-independent growth-death assay (methylcellulose, CellTiter-Glo, 6 days); assay type: cell-based, human; conditions: for IC50: Homo sapiens
Method: as §1
(§4) The cellular response to Compound A was evaluated in an anchorage-independent cell growth assay that quantified the extent of cell growth inhibition and the net change in cell population. The assay was performed in black, clear bottom, untreated 384-well plates (Greiner #781096). It is important to use either non-tissue culture treated or Low Attachment plates to prevent cells from adhering to the plate during the assay. In brief, the assay was performed as described below.
(§5) A 1% (weight/volume) stock of methylcellulose solution was prepared by dissolving 5 grams of sterilized methylcellulose (Sigma #M0512) in 495 mL of cell culture medium. Here, RPMI1640 media containing 10% FBS, 1% L-glutamine, 1% sodium pyruvate was added to the cooled methylcellulose that had been placed in a glass container and autoclaved to sterilize. Media can be substituted if the cells require different cell culture medium for growth. The dissolution often took a day with vigorous stirring at 4° C. maintaining sterile conditions.
(§6) Cells were plated into a 384 well plate with assay conditions of 0.65% methylcellulose (final concentration) and 1000 cells per well in a final volume of 48 μL. This was achieved by diluting cells harvested from culture and re-suspended in growth medium (dilute to 2.0833×10^4 cells/mL) with the 1% methylcellulose. The cells were mixed by inversion to distribute evenly, bubbles were dispersed and 48 μL was placed into the well with a positive displacement pipette. The plates were placed in a cell culture incubator containing 5% CO2 at 37° C.
(§7) Serial dilution of compound in DMSO was done in a 384 well plate starting with 20 μL of stock compound solution in the first column and 10 μL of DMSO in the other wells. Ten μL from the compound well was transferred into the DMSO containing well, mixed, and the serial dilution was continued with 10 μL transfers across the plate. Then, 4 μL of this DMSO diluted compound was added into wells of a new 384 well plate containing 105 μL of appropriate growth medium. This ‘compound plate’ was used to dose the assay plates containing cells in methylcellulose.
(§8) To initiate the assay, two μL from each well of the ‘compound plate’ were added to individual wells of the ‘assay plates,’ each well containing the 48 μL of cells in methylcellulose. These assay plates were placed in the cell culture incubator for 6 days. One plate was selected at random and developed with Cell TiterGlo (CTG) at the time of compound addition to represent the time equal zero (T0) plate, i.e. to represent the number of cells at the time of compound addition.
as §2
as §3, with “(gIC50). The gIC50 value is the midpoint of the growth window (between T0 and growth of DMSO controls).” for “(gIC50).”

NCI-H226 cells = assay: as above; assay type: cell-based, human; conditions: second anchorage-independent assay, NCI-H226, merlin negative
Method: as §1, §4, §5, §6, §7, §8, §2
as §3, with “(gIC50). The gIC50 value is the midpoint of the growth window (between T0 and growth of DMSO controls).” for “(gIC50).”

Mero-82 cells = assay: as above; assay type: cell-based, human; conditions: second anchorage-independent assay, Mero-82, merlin negative
Method: as §1, §4, §5, §6, §7, §8, §2
as §3, with “(gIC50). The gIC50 value is the midpoint of the growth window (between T0 and growth of DMSO controls).” for “(gIC50).”

Mero-41 cells = assay: as above; assay type: cell-based, human; conditions: second anchorage-independent assay, Mero-41, merlin negative
Method: as §1, §4, §5, §6, §7, §8, §2
as §3, with “(gIC50). The gIC50 value is the midpoint of the growth window (between T0 and growth of DMSO controls).” for “(gIC50).”

NCI-H2052 cells = assay: as above; assay type: cell-based, human; conditions: for IC50: Homo sapiens, read-out: Growth Inhibition gIC50
Method: as §1, §4, §5, §6, §7, §8, §2
as §3, with “(gIC50). The gIC50 value is the midpoint of the growth window (between T0 and growth of DMSO controls).” for “(gIC50).”

Mero-14 cells = assay: as above; assay type: cell-based, human; conditions: second anchorage-independent assay, Mero-14, merlin negative
Method: as §1, §4, §5, §6, §7, §8, §2
as §3, with “(gIC50). The gIC50 value is the midpoint of the growth window (between T0 and growth of DMSO controls).” for “(gIC50).”

[2] = system: patients with mesothelioma; assay: Phase I clinical study, anti-tumor activity (RECIST 1.1, Kaplan-Meier PFS) by merlin status; assay type: in vivo, human
Excerpt: A multi-part, Phase I study was designed to determine the maximum tolerated dose (MTD), safety, tolerability, pharmacokinetics (PK), pharmacodynamics (PD), and anti-tumor activity of Compound A in patients with advanced solid tumors. Part 1 of the study identified the MTD using a dose escalation procedure, and is described herein. Parts 2-3 are ongoing. Part 2 further explores the safety and tolerability of Compound A at or below the MTD, and Part 3 evaluates the pharmacodynamics of Compound A at doses at and below the MTD. Part 4 was not opened for patient accrual at the time of this summary and will explore the safety, tolerability, pharmacokinetics and clinical activity of Compound A in patients with recurrent glioblastoma multiforme. Part 5 was not opened for patient accrual at the time of this summary and will explore the pharmacokinetics of Compound A over several weeks of administration. Patients with mesothelioma were eligible to participate, e.g, in Part 1, of the study. Patients with mesothelioma were eligible to participate in Parts 1-3 of the study at the time the data below were collected.
Patients 18 years old with advanced solid tumors with histologically or cytologically confirmed diagnosis of a solid tumor malignancy that was not responsive to accepted standard therapies or for which there is no standard or curative therapy were eligible. All patients provided signed informed consent. […] In Parts 2-3 of the study, patients with tumors reported in the literature to overexpress FAK that are not responsive to accepted standard therapies or for which there were no standard or curative therapies were included. Subjects in Part 3 were also required to have solid tumors amenable to biopsy.
Patients with an active gastrointestinal disease known to interfere with the pharmacokinetics of drugs or prior resection of the small intestine were ineligible. Other exclusion criteria included unresolved toxicity>Grade 1 from previous anticancer therapy except alopecia, QTcF interval>450 msecs in males (470 in females) or congenital long QT syndrome, history of acute coronary syndromes, Class II-IV heart failure as defined by the New York Heart Association, symptomatic or untreated brain metastases, primary malignancy of the central nervous system (in Parts 1-3), nursing females, consumption of dietary substances or prohibited medications as defined in the protocol, or any serious and/or unstable pre-existing medical, psychiatric, or other condition that could interfere with subject safety or obtaining informed consent.
Measurements to evaluate safety included weight, heart rate, blood pressure, temperature, clinical laboratory tests, 12-lead ECG, and neurologic and physical evaluation. Adverse events were assessed throughout the study using the CTCAE v4.0, Common Terminology Criteria for Adverse Events (CTCAE) Version 4.0, US Department of Health and Human Services, National Institutes of Health, National Cancer Institute, May 2009.
Disease assessment was performed at screening and every 6 weeks after the start of dosing. Response was recorded as complete response (CR), partial response (PR), stable disease (SD), or progressive disease (PD) according to the RECIST Version 1.1.
To determine if loss of merlin in the current Phase I mesothelioma population was predictive of response to Compound A, merlin levels were assessed in archival tissue (FFPE) collected at screening by immunohistochemistry (IHC), and the result correlated to clinical endpoint of median progression free survival (PFS).
A custom IHC assay was developed by Mosaic laboratories, Inc, employing a rabbit polyclonal antibody (Santa Cruz Biotechnology, Inc, catalog # SC332) using a dilution of 1:1600. The antibody signal was evaluated by Envision+rabbit HRP (DAKO) detection kit, and the staining intensity (Grade 0-3+) was used to categorize merlin status (merlin positive=wildtype or merlin negative=loss of merlin) of the clinical samples tested. […]

[3] = Homo sapiens, read-out: Growth Inhibition gIC50
[4] = second anchorage-independent assay, NCI-H2052, merlin negative
[5] = mesothelioma patients, 26 with radiologic assessments, RECIST 1.1

Compound: CONC(=O)c1ccccc1Nc1cc(Nc2cc(C)nn2C(C)C)ncc1Cl [Compound A, 2-[(5-chloro-2-{[3-methyl-1-(1-methylethyl)-1H-pyrazol-5-yl]amino}-4-pyridinyl)amino]-N-(methyloxy)benzamide]
- IC50 [1]: < 250 nM
- IC50 (MSTO-211H cells; 144 h, initial anchorage-independent assay, MSTO-211H, NF2 wild-type, merlin positive, 6 days, read-out: Growth Inhibition gIC50): 3590 nM
- IC50 (MSTO-211H cells; second anchorage-independent assay, MSTO-211H, merlin positive, read-out: Growth Inhibition gIC50): 10900 nM
- IC50 (MSTO-211H cells; second anchorage-independent assay, merlin positive cell line (MSTO-211H), read-out: Concentration required for 50% growth inhibition): ~10000 nM
- Net Pop. change Ymin-T0 (MSTO-211H cells; initial anchorage-independent assay, MSTO-211H, NF2 wild-type, 6 days, highest concentration ~30 μM): 343%
- Net Population Change Ymin-T0 (MSTO-211H cells; second anchorage-independent assay, MSTO-211H, merlin positive): 367%
- IC50 (NCI-H226 cells; [3]): 196 nM
- Net Population Change Ymin-T0 (NCI-H226 cells): −18%
- IC50 (Mero-82 cells; [3]): 59 nM
- Net Population Change Ymin-T0 (Mero-82 cells): −22%
- IC50 (Mero-41 cells; [3]): 54 nM
- Net Population Change Ymin-T0 (Mero-41 cells): −54%
- IC50 (NCI-H2052 cells; 144 h, initial anchorage-independent assay, NCI-H2052, NF2 mutant, merlin negative, 6 days): 186 nM
- IC50 (NCI-H2052 cells; [4]): 236 nM
- Net Pop. change Ymin-T0 (NCI-H2052 cells; initial anchorage-independent assay, NCI-H2052, NF2 mutant, 6 days): −3%
- Net Population Change Ymin-T0 (NCI-H2052 cells; [4]): 7%
- IC50 (Mero-14 cells; [3]): 63 nM
- Net Population Change Ymin-T0 (Mero-14 cells): −55%
- Overall median progression free survival (PFS) ([2]; all mesothelioma patients, 95% CI 9.7, 24.1, Kaplan-Meier): 17.7 weeks
- Patients with PD as best response to treatment [2, 5]: 9 patients
- Patients with SD as best response to treatment [2, 5]: fourteen
- Patients with non-CR/non-PD as best response to treatment [2, 5]: three
- PR or CR; minor responses ([2]; mesothelioma patients, RECIST 1.1): no patients experienced a PR or CR, minor responses in some patients with mesothelioma were seen
- Merlin negative patients remaining on study for more than four months ([2]; mesothelioma, merlin negative): Seven of 14
- Median PFS in merlin negative subjects ([2]; mesothelioma, merlin negative, n=14, 95% CI 6.0, 29.3): 24.1 weeks
- Merlin positive patients remaining on study for more than four months ([2]; mesothelioma, merlin positive): three of nine
- Median PFS in merlin positive subjects ([2]; mesothelioma, merlin positive, n=9, 95% CI 7.3, undefined): 11.4 weeks

Source: patent publication US9192604B2, “Method of administration and treatment” (GlaxoSmithKline Intellectual Property (No. 2) Limited, priority 2011, dated 2015)
